Data published in ChEMBL document CHEMBL5214991, “Discovery of 4-methyl-3-(pyridin-2-ylamino)benzamide derivatives as C-Abl inhibitors with potential neuroprotective effect” (Bioorg Med Chem, 2022).
Active and inactive are the calls of the source. The rule behind the calls is not given here.

Tests used:
[1] = Cytotoxicity against human SH-SY5Y cells incubated for 48 hrs and measured by MTT assay; assay type: toxicity, cell-based
[2] = Cytotoxicity against rat H9c2 cells incubated for 48 hrs and measured by MTT assay; assay type: toxicity, cell-based
[3] = Cytotoxicity against HEK293 cells incubated for 48 hrs and measured by MTT assay; assay type: toxicity, cell-based; settings: human
[4] = Cytotoxicity against human L02 cells incubated for 48 hrs and measured by MTT assay; assay type: toxicity, cell-based
SH-SY5Y [5] = experiment: Neuroprotective activity against MPP+-induced cell death in human SH-SY5Y cells assessed as increase in cell viability at 0.08 to 20 uM measured after 48 hrs by propidium iodide staining method; assay type: functional, cell-based; settings: dose 0.08-20 µM
SH-SY5Y [6] = experiment: Neuroprotective activity against MPP+-induced cell death in human SH-SY5Y cells assessed as reduction in apoptosis at 1.25 to 5 uM measured after 48 hrs by propidium iodide staining method; assay type: functional, cell-based; settings: dose 1.25-5 µM
[7] = AUC (0 to t) in male Sprague-Dawley rat at 5 mg/kg, iv measured by LC-MS/MS analysis; assay type: ADME, organism-based; design: dose 5 mg/kg, route iv; settings: in vivo
[8] = AUC (0 to infinity) in male Sprague-Dawley rat at 5 mg/kg, iv measured by LC-MS/MS analysis; assay type: ADME, organism-based; design: time infinity, dose 5 mg/kg, route iv; settings: in vivo
[9] = MRT (0 to t) in male Sprague-Dawley rat at 5 mg/kg, iv measured by LC-MS/MS analysis; assay type: ADME, organism-based; settings: in vivo
[10] = MRT (0 to infinity) in male Sprague-Dawley rat at 5 mg/kg, iv measured by LC-MS/MS analysis; assay type: ADME, organism-based; settings: in vivo
[11] = Half-life in male Sprague-Dawley rat at 5 mg/kg, iv measured by LC-MS/MS analysis; assay type: ADME, organism-based; settings: in vivo
[12] = Clearance in male Sprague-Dawley rat at 5 mg/kg, iv measured by LC-MS/MS analysis; assay type: ADME, organism-based; settings: in vivo
[13] = Volume of distribution at steady state in male Sprague-Dawley rat at 5 mg/kg, iv measured by LC-MS/MS analysis; assay type: ADME, organism-based; settings: in vivo, read-out: Vdss
[14] = AUC (0 to t) in male Sprague-Dawley rat at 20 mg/kg, po measured by LC-MS/MS analysis; assay type: ADME, organism-based; design: dose 20 mg/kg, route po; settings: in vivo
[15] = AUC (0 to infinity) in male Sprague-Dawley rat at 20 mg/kg, po measured by LC-MS/MS analysis; assay type: ADME, organism-based; design: time infinity, dose 20 mg/kg, route po; settings: in vivo
[16] = MRT (0 to t) in male Sprague-Dawley rat at 20 mg/kg, po measured by LC-MS/MS analysis; assay type: ADME, organism-based; settings: in vivo
[17] = MRT (0 to infinity) in male Sprague-Dawley rat at 20 mg/kg, po measured by LC-MS/MS analysis; assay type: ADME, organism-based; settings: in vivo
[18] = Half-life in male Sprague-Dawley rat at 20 mg/kg, po measured by LC-MS/MS analysis; assay type: ADME, organism-based; settings: in vivo
[19] = Tmax in male Sprague-Dawley rat at 20 mg/kg, po measured by LC-MS/MS analysis; assay type: ADME, organism-based; settings: in vivo
[20] = Cmax in male Sprague-Dawley rat at 20 mg/kg, po measured by LC-MS/MS analysis; assay type: ADME, organism-based; design: dose 20 mg/kg, route po; settings: in vivo
[21] = Oral bioavailability in male Sprague-Dawley rat at 20 mg/kg measured by LC-MS/MS analysis; assay type: ADME, organism-based; settings: in vivo
[22] = Ratio of drug concentration in brain to plasma in male Sprague-Dawley rat at […], iv measured by LC-MS/MS analysis; assay type: ADME, organism-based; settings: dose 5 mg/kg, read-out: BPR

| Structure (SMILES) | IC50 at 48 h [1] | IC50 at 48 h [2] | IC50 at 48 h [3] | IC50 at 48 h [4] | Activity (SH-SY5Y [5]) | bioavailability [21] | further results |
| --- | --- | --- | --- | --- | --- | --- | --- |
| Cc1ccc(C(=O)Nc2ccc(CN3CCN(C)CC3)c(C(F)(F)F)c2)cc1Nc1cc(-c2cncnc2)ccn1 | 12 µM | 16.7 µM | 17.1 µM | 30.1 µM | Active | – | – |
| Cc1cn(-c2cc(NC(=O)c3ccc(C)c(Nc4cc(-c5cccnc5)ccn4)c3)cc(C(F)(F)F)c2)cn1 | > 80 µM | > 80 µM | > 80 µM | > 80 µM | Active | – | – |
| Cc1ccc(C(=O)Nc2ccc(CN3CCN(C)CC3)c(C(F)(F)F)c2)cc1Nc1cc(-c2cccnc2)ccn1 | 19 µM | 9.12 µM | 14 µM | 37.4 µM | Active | – | – |
| Cc1ccc(C(=O)Nc2cc(-c3cnn(C)c3)cc(C(F)(F)F)c2)cc1Nc1cc(-c2cccnc2)ccn1 | > 80 µM | > 80 µM | > 80 µM | > 80 µM | Active | 47.6% | Activity (SH-SY5Y [6]): Active; AUC(0-t) [7]: 5120 ng·h/mL; AUC(0-inf) [8]: 5200 ng·h/mL; MRT last [9]: 5.29 h; MRT inf [10]: 5.29 h; half-life [11]: 3.62 h; clearance [12]: 17.7 mL/min/kg; Vd [13]: 5.36 L/kg; AUC(0-t) [14]: 9890 ng·h/mL; AUC(0-inf) [15]: 9900 ng·h/mL; MRT last [16]: 5.9 h; MRT inf [17]: 5.93 h; half-life [18]: 3.54 h; Tmax [19]: 2.33 h; Cmax [20]: 1380 ng/mL; Kp [22]: 4 |
| Cc1ccc(C(=O)Nc2cc(-c3cnn(C)c3)cc(C(F)(F)F)c2)cc1Nc1cc(-c2cncnc2)ccn1 | > 80 µM | > 80 µM | > 80 µM | > 80 µM | Active | – | – |
| Cc1cn(-c2cc(NC(=O)c3ccc(C)c(Nc4nccc(-c5cccnc5)n4)c3)cc(C(F)(F)F)c2)cn1 [NILOTINIB] | 38.5 µM | 21.3 µM | 8.4 µM | 40.4 µM | Active | 27.1% | – |
